Data set [1] in a line: Thermodynamic solubility of the compound by quantitative nitrogen detection assay. It counts as physicochemical. To be noted: read-out: Therm_solubility.
Data set [2] is described as follows: Plasma concentration in CD1 mouse at 10 mg/kg, ip measured after 0.5 hrs by LC-MS/MS analysis. It counts as ADME, organism-based.
The nature of data set [3]: Plasma concentration in CD1 mouse at 10 mg/kg, ip measured after 7 hrs by LC-MS/MS analysis. Format: ADME, organism-based.
Data set [4] in a line: Plasma concentration in CD1 mouse at 10 mg/kg, ip measured after 2 hrs by LC-MS/MS analysis. Format: ADME, organism-based.
The subject of data set [5] is Mus musculus. Briefly: AUC (0 to 7 hrs) in CD1 mouse at 10 mg/kg, ip measured after 7 hrs by LC-MS/MS analysis. Format: ADME, organism-based. Details: dose 10 mg/kg, time < 7 hr, route intraperitoneal. To be noted: in vivo.
Data set [6] is described as follows: Plasma concentration in CD1 mouse at 10 mg/kg, ip measured after 4 hrs by LC-MS/MS analysis. Format: ADME, organism-based.
Data set [7] is described as follows: Metabolic stability in CD1 mouse liver microsomes assessed as half life at 1 uM in presence of NADPH by LC-MS/MS analysis. It counts as ADME, microsome. (In general: Liver microsomes are vesicles of endoplasmic reticulum, rich in cytochrome P450 enzymes.)
Data set [8] has as its system Mus musculus. Briefly: Time at which plasma concentration stays above invitro effective concentration for inhibition of ALDH1A3 in human OVCAR5 cells in CD1 mouse at 10 mg/kg, ip by LC-MS/MS analysis. It counts as organism-based. To be noted: in vivo.
The subject of data set [9] is Mus musculus. Description: Time at which plasma concentration stays above invitro effective concentration for inhibition of ALDH1A3 in human PEO1 cells in CD1 mouse at 10 mg/kg, ip by LC-MS/MS analysis. The note with it: in vivo. Format: organism-based.

The structures appear in SMILES notation. In brackets after ≈: the same amount, converted by molar mass.

For the compound `Cc1ccccc1-n1c(SCc2cccc(F)c2)nc2c(cnn2C)c1=O`, in data set [1], the solubility thermodynamic stood at 38 µM (≈ 14.5 µg/mL).
In the case of `Cn1ncc2c(=O)n(Cc3ccccc3)c(SCc3cccc(F)c3)nc21`, the solubility thermodynamic in data set [1] is 5 µM (≈ 1.9 µg/mL).
As for `O=c1c2cn(C3COC3)nc2nc(SCc2cccc(F)c2)n1-c1ccccc1`, in data set [1], the solubility thermodynamic is 5 µM (≈ 2.04 µg/mL). The same compound displayed a concentration at 0.5 h in [2] of 7600 nM. The compound further yielded a concentration at 7 h in data set [3] of 900 nM. The compound further displayed a concentration at 2 h in data set [4] of 5200 nM. The same compound had an exposure (AUC) in the data set on Mus musculus [5] of 27.8 µM·h. Also, the concentration at 4 h in data set [6] came to 3000 nM.
For `Cn1ncc2c(=O)n(-c3cccc(Cl)c3)c(SCc3cccc(F)c3)nc21`, the solubility thermodynamic in data set [1] stood at 55 µM (≈ 22 µg/mL).
The same measure, in the same setting: the same measure for `Cn1ncc2c(=O)n(-c3ccccc3)c(SCc3cccc(F)c3)nc21`: under 0.7 µM; for `Cn1ncc2c(=O)n(CCc3ccccc3)c(SCc3cccc(F)c3)nc21`: 3 µM (≈ 1.18 µg/mL).
`Cn1cc2c(=O)n(-c3ccccc3)c(SCc3cccc(F)c3)nc2n1`: in data set [1], the solubility thermodynamic amounted to 69 µM (≈ 25.3 µg/mL). Also, in [7], the t1/2 was 13 min.
As for `O=c1c2cnn(C3COC3)c2nc(SCc2cccc(F)c2)n1-c1ccccc1`, the solubility thermodynamic in data set [1] worked out at 8 µM (≈ 3.27 µg/mL).
Consider `O=c1c2cn(CC3COC3)nc2nc(SCc2cccc(F)c2)n1-c1ccccc1`, for which the solubility thermodynamic in data set [1] worked out at 53 µM (≈ 22.4 µg/mL). Moreover, the t1/2 in data set [7] turned out to be 27 min. The Time in the data set with Mus musculus [8] and in the data set with Mus musculus [9] was 4 h in each case. The concentration at 0.5 h in [2] stood at 5600 nM. In [3], this compound returned a concentration at 7 h of 100 nM. Moreover, in [4], the concentration at 2 h came out at 2600 nM. This compound came in with an AUC with Mus musculus [5] of 11 µM·h. The concentration at 4 h in [6] is 600 nM.
As for `Cc1ccccc1-n1c(SCc2cccc(F)c2)nc2[nH]ncc2c1=O`, in data set [1], the solubility thermodynamic is 2 µM (≈ 0.733 µg/mL). Moreover, the t1/2 in [7] worked out at 9 min.

By AUC is commonly meant concentration integrated over time. Read a low AUC as less exposure.
